Source: patent US20070155838A1, “New Method for Treating Urinary Disorders” (Pfizer Inc, priority 2003, published 2007)

Experiments:
[1] = test system: women with urinary urgency and frequency; test: randomized, double-blind, placebo-controlled study of tolterodine tartrate (Detrol) tablets 1 mg b.i.d. in women with urinary urgency and frequency; format: in vivo, human
Experimental: The objective of a study is to evaluate the efficacy and safety of tolterodine tartrate (Detrol®) tablets 2 mg daily versus placebo, in the treatment of urinary urgency and frequency in women, in a randomized, double-blind, placebo-controlled study. The patients received 1 mg tolterodine b.i.d. or placebo, and the dosage regime was one tablet orally, every 8-12 hours, not to exceed 2 tablets daily. The treatment duration was 10 days, after a 5 day pretreatment baseline phase. […] women were included in the study, and were randomized to either the tolterodine or placebo group. All of the subjects were eligible for intent-to-treat (ITT) and safety analysis. 1077 of the randomized subjects were included in the per-protocol analysis.
Females with symptoms urinary urgency, defined as having to stop the current activity and go immediately to the bathroom at least once a day (severe) or able to finish a task but go right to the bathroom at least twice a day (moderate), were included. Frequency was defined as >7 micturitions per 24 hours. The mean age was 48 years. About 83% of the subjects were Caucasian.
Women were asked to complete a diary recording the time of awakening; number and severity of urgency of each micturition, and the number of episodes of incontinence throughout the day as well as, time when tablets taken. The women were directed to begin using the study drug after 5 days (baseline, pretreatment period): 1 tablet every 8-12 hours not to exceed 2 tablets per day.
Thus, this study was designed to evaluate the efficacy and safety of tolterodine 1 mg twice daily, every 8-12 hours, compared to placebo, in women with urinary urgency and frequency. The primary efficacy endpoints were: • 1. Subject perception of improvement in symptoms of urgency after five days of treatment, vs. baseline period, using a three-point categorical scale (Chi Square analysis): • 2. Mean of daily average severity of urgency for urgent episodes (urgency rating score of at least 1) for the 5-day baseline period vs. first five days of treatment.
A five-point categorical scale was used to assess the severity of urgency experienced at each micturition, ranging from 0 (no discomfort) to 4 (very severe).
The secondary efficacy endpoints were: • 1. Average number of urgency episodes per day per subject for the 5-day baseline period vs. first five days of treatment. • 2. Average urgency score (severity of urgency) per subject for micturition episodes accompanied by urgency (a rating score of at least 1) for the 5-day baseline period vs. first day of treatment. • 3. Average number of micturitions per day per subject for the 5-day baseline period vs. first five days of treatment.
Subject perception of improvement in symptoms or urgency after ten days of treatment, vs. baseline period, using a three-point categorical scale (Chi Square analysis).
The sudden urge to urinate accompanied by frequency of urination is a problem for many adults. The symptoms of urgency are most problematic. Therefore, the primary variables examined the subjective perception of improvement in urgency as well as the severity of urgency in subjects treated with tolterodine 1 mg b.i.d. In addition, the frequency of urination was examined as this is a standard assessment tool commonly used to assess the efficacy of drugs for the treatment of overactive bladder syndrome.
Two populations were analyzed for efficacy: the intent-to-treat (ITT) and the per-protocol populations. The former comprised all individuals randomized to treatment. The latter consisted of those individuals who complied with the protocol with regard to eligibility, visit schedule, diary completion and treatment schedule. All randomized subjects who took study medication were included in the safety analyses. Incidence of adverse events was tabulated for all randomized subjects. […]

[2] = test system: muscarinic receptors of the salivary gland; conditions: compared with oxybutynin; cited from earlier work
[3] = test system: bladder; conditions: compared with oxybutynin; cited from earlier work
[4] = all analyzed time points, including day 1, compared to placebo
[5] = all analyzed time points, compared to placebo

Cc1ccc(O)c([C@H](CCN(C(C)C)C(C)C)c2ccccc2)c1 [tolterodine, (R)-N,N-diisopropyl-3-(2-hydroxy-5-methylphenyl)-3-phenylpropanamine]
subjects with AEs related to nervous system disorders ([1]; 1 mg b.i.d. oral, 10 days, placebo 2.0%): 3.0% | subjects with adverse events considered related to study medication ([1]; 1 mg b.i.d. oral, 10 days, placebo 4.7%): 4.8% | subjects with AEs related to gastrointestinal disorders ([1]; 1 mg b.i.d. oral, 10 days, placebo 4.9%): 5.6% | subjects reporting adverse events ([1]; 1 mg b.i.d. oral, 10 days, placebo 10.7%): 10.8% | subjects with AEs related to nervous system disorders (number) ([1]; 1 mg b.i.d. oral, 10 days, placebo 13): 20 subjects | subjects with adverse events considered related to study medication (number) ([1]; 1 mg b.i.d. oral, 10 days, placebo 31): thirty-two | subjects with AEs related to gastrointestinal disorders (number) ([1]; 1 mg b.i.d. oral, 10 days, placebo 32): 37 subjects | subjects reporting adverse events (number) ([1]; 1 mg b.i.d. oral, 10 days, placebo 70): Seventy-one | subjects discontinued from the study due to AEs (number) ([1]; 1 mg b.i.d. oral, 10 days, placebo four): Three | subjects reporting serious AEs (number) ([1]; 1 mg b.i.d. oral, 10 days, placebo one): Three | percentage of subjects reporting symptom improvement (subject perception of improvement in symptoms of urgency) ([1]; Day 5, 1 mg b.i.d. oral, compared to placebo): statistically significantly higher percentage | decrease in severity of urgency for all micturitions [1, 4]: statistically significantly greater decrease | decrease in severity of urgency for urgent episodes [1, 4]: statistically significantly greater decrease | decrease in the number of micturitions/day [1, 5]: statistically significantly greater decrease | reduction in the number of urgent episodes/day [1, 5]: statistically significantly greater reduction | reduction from baseline in number of micturitions/day ([1]; days 1-5, 1 mg b.i.d. oral, N=660, placebo 1.26): 1.59 | improvement from baseline in severity of urgency for urgent episodes (score, 0-4 scale) ([1]; days 1-5, 1 mg b.i.d. oral, placebo 0.19): 0.27 | affinity for muscarinic receptors of the salivary gland relative to oxybutynin [2]: eight times lower | potency in the bladder relative to oxybutynin [3]: equipotent with oxybutynin
